Reference: patent US11311501B2, “Mitoriboscins: mitochondrial-based therapeutics targeting cancer cells, bacteria, and pathogenic yeast” (LUNELLA BIOTECH, INC., priority 2017, dated 2022)
Converted amounts (≈) assume the structure as drawn.

Legend:
[1] = system: MCF7 cells; test: Seahorse XF96 metabolic flux analysis (OCR/ECAR); type: cell-based, human; conditions: for rank order potency to reduce maximal respiration and ATP production: top 10 hits, FIG. 10; for effect on glycolysis: ECAR; for inhibition of mitochondrial oxygen-consumption: FIGS. 7, 8 and 9
Excerpt: The present approach further involves methods of functional validation at step S105, during which a compound's function as a mitochondrial inhibitor may be confirmed. A number of methods may be used for functional validation, including, for example, metabolic flux analysis, mammosphere assays, viability assays, and antibiotic (anti-bacterial and/or anti-fungal) activity. For example, the inventors determined extracellular acidification rates (ECAR) and real-time oxygen consumption rates (OCR) for MCF7 cells using the Seahorse Extracellular Flux (XF96) analyzer (Seahorse Bioscience, MA, USA). MCF7 cells were maintained in DMEM supplemented with 10% FBS (fetal bovine serum), 2 mM GlutaMAX, and 1% Pen-Strep. 5,000 cells per well were seeded into XF96-well cell culture plates, and incubated overnight at 37° C. in a 5% CO2 humidified atmosphere. After 24 hours, cells were treated with selected compounds showing ATP-depletion without prominent cytotoxicity at various concentrations (or vehicle alone). After 72 hours of treatment, cells were washed in pre-warmed XF assay media (for OCR measurement, XF assay media was supplemented with 10 mM glucose, 1 mM Pyruvate, 2 mM L-glutamine and adjusted at pH 7.4). Cells were maintained in 175 μL/well of XF assay media at 37° C. in a non-CO2 incubator for 1 hour. During incubation, 25 μL of 80 mM glucose, 9 μM oligomycin, 1M 2-deoxyglucose (for ECAR measurement) and 25 μL of 10 μM oligomycin, 9 μM FCCP, 10 μM rotenone, 10 μM antimycin A (for OCR measurement) in XF assay media was loaded into the injection ports of the XFe-96 sensor cartridge. During the experiment, the instrument injected these inhibitors into the wells at a given time point, while ECAR/OCR was measured continuously. ECAR and OCR measurements were normalized by protein content (using the Sulphorhodamine B assay). Data sets were analyzed by XFe-96 software, using one-way ANOVA and Student's t-test calculations. All experiments were performed in triplicate, and results validated the mitochondrial inhibition effects of mitoriboscin compounds described herein. It should be appreciated that numerous methods are known for functional validation, and that persons of skill in the art may select one or more depending on the validation needs (e.g., other assays that measure or approximate mitochondrial function). The present approach involves methods of function validation of mitoriboscin compounds. For example, the inventors assessed functional validation of three candidates using the Seahorse Analyzer, which quantitatively measures oxygen consumption rate (OCR) and extracellular acidification rate (ECAR). OCR is a surrogate marker for OXPHOS and ECAR is a surrogate marker for glycolysis and L-lactate production.

[2] = system: MRSA ATCC 43300; test: MIC by broth dilution method; type: cell-based, Methicillin-resistant Staphylococcus aureus; conditions: for sensitivity of MRSA: summary of Table 4
Procedure: (§1) The minimal inhibitory concentration (MIC) of the antibacterial compounds may be determined using the broth dilution method, according to CLSI guidelines. Test compound solutions (or antibiotic solutions used as positive controls) were diluted, serially, with MHB medium. Then, the suspensions of the microorganisms, prepared from overnight cultures of bacteria in the MHB medium, at a concentration of 10^6 CFU/ml, were added to each dilution in a 1:1 ratio. McFarland standards were used as a reference to adjust the turbidity of microorganism suspensions. Growth (or lack thereof) of the microorganisms was determined after incubation for 24 hours at 37° C. by turbidimetry (wavelength of 600 nm). MIC 50 and MIC 99 are defined as the minimum inhibitory concentration of the compound required for 50% and 99% inhibition of bacterial growth. […] The susceptibility test by measurement of MIC was performed in triplicate and repeated three times independently. Statistical significance was determined using the Student's t-test and values of less than 0.05 were considered significant.
(§2) In order to determine the minimal inhibitory concentration (MIC) for 24/F9, 24/D4 and 23/G4, the broth dilution method may be performed.

[3] = system: MCF7 cells; test: Mammosphere formation assay; type: cell-based, human; conditions: 5 μM, FIG. 5
Excerpt: The present approach involves methods of testing compounds, and in particular mitoriboscins, for anti-cancer properties. As discussed above, vHTS and computational chemistry may be used to identify candidate mitochondrial inhibitors. Those candidates may be tested for specific anti-cancer properties. For examples, the inventors compared seven candidate compounds in parallel for their ability to inhibit mammosphere formation in MCF7 cells. […] For example, 23/G4 (Group 1) reduced mammosphere formation by 50% at this concentration. Similarly, 24/F9 (Group 2) and 24/D4 (Group 3), both reduced mammosphere formation by ˜90%.

[4] = system: C. albicans; test: MIC by broth dilution method; type: cell-based; conditions: C. albicans ATCC 13883
Procedure: as §1, §2

[5] = system: P. auriginosa ATCC 27853; test: MIC by broth dilution method; type: cell-based, P. aeruginosa; conditions: for MIC50 / MIC99: Pseudomonas aeruginosa, ATCC27853
Procedure: as §1, with “nm).” for “nm). MIC 50 and MIC 99 are defined as the minimum inhibitory concentration of the compound required for 50% and 99% inhibition of bacterial growth.”, “independently.” for “independently. Statistical significance was determined using the Student's t-test and values of less than 0.05 were considered significant.”

[6] = system: Strept. pyogenes ATCC 19615; test: MIC by broth dilution method; type: cell-based; conditions: for MIC50 / MIC99: Streptococcus pyogenes, ATCC19615
Procedure: as §1, with “nm).” for “nm). MIC 50 and MIC 99 are defined as the minimum inhibitory concentration of the compound required for 50% and 99% inhibition of bacterial growth.”, “independently.” for “independently. Statistical significance was determined using the Student's t-test and values of less than 0.05 were considered significant.”

[7] = system: E. coli ATCC 25922; test: MIC by broth dilution method; type: cell-based; conditions: E. coli ATCC 25922, 24 hours at 37° C.; for MIC50 / MIC99: Escherichia coli, ATCC25922
Procedure: as §1, with “nm).” for “nm). MIC 50 and MIC 99 are defined as the minimum inhibitory concentration of the compound required for 50% and 99% inhibition of bacterial growth.”, “independently.” for “independently. Statistical significance was determined using the Student's t-test and values of less than 0.05 were considered significant.”

[8] = system: K. pneumoniae ATCC 13883; test: MIC by broth dilution method; type: cell-based; conditions: for MIC50 / MIC99: Klebsiella pneumoniae, ATCC13883
Procedure: as §1, with “nm).” for “nm). MIC 50 and MIC 99 are defined as the minimum inhibitory concentration of the compound required for 50% and 99% inhibition of bacterial growth.”, “independently.” for “independently. Statistical significance was determined using the Student's t-test and values of less than 0.05 were considered significant.”

[9] = system: Staph. aureus ATCC 25923 (MSSA); test: MIC by broth dilution method; type: cell-based; conditions: for MIC50 / MIC99: Staphylococcus aureus
Procedure: as §1, with “nm).” for “nm). MIC 50 and MIC 99 are defined as the minimum inhibitory concentration of the compound required for 50% and 99% inhibition of bacterial growth.”, “independently.” for “independently. Statistical significance was determined using the Student's t-test and values of less than 0.05 were considered significant.”

[10] = Staph. aureus ATCC 25923 (Table 3)
[11] = Staphylococcus aureus, MRSA ATCC 43300

SMILES | MIC 50% ([9]; MSSA ATCC 25923 (Table 4)) [µg/mL] | MIC 99% ([9]; MSSA ATCC 25923 (Table 4)) [µg/mL] | MIC50 [5] [µg/mL] | MIC99 [5] [µg/mL] | MIC50 [6] [µg/mL] | MIC99 [6] [µg/mL] | MIC50 [7] [µg/mL] | MIC99 [7] [µg/mL] | MIC50 [8] [µg/mL] | MIC99 [8] [µg/mL] | MIC50 [9, 10] [µg/mL] | MIC99 [9, 10] [µg/mL] | rank order potency to reduce maximal respiration and ATP production [1] | other results
OC1C(NCc2ccccc2)CCCC1Oc1ccccc1Oc1cccc(F)c1 (centres unmarked) [23/E9] | – | – | – | – | – | – | – | – | – | – | – | – | top 6 | –
CCCc1ccc(OCc2ccccc2)c(CN2CCC3(CC2)CC(N(C)C)C(C)(O)CO3)c1 (centres unmarked) [24/D4] | 16 (≈ 34.3 µM) | 32 (≈ 68.6 µM) | – | – | – | – | – | – | – | – | – | – | – | MIC 50% ([2]; MRSA ATCC 43300): 16 µg/mL (≈ 34.3 µM); MIC 99% ([2]; MRSA ATCC 43300): >32 µg/mL; sensitivity of MRSA [2]: sensitive; reduction of mammosphere formation [3]: ~90%; MIC 99% [4]: >64 µg/mL; effect on glycolysis [1]: suppressed glycolysis; inhibition of mitochondrial oxygen-consumption [1]: dose-dependently inhibited; MIC 50% [5]: 16 µg/mL (≈ 34.3 µM); MIC 99% [5]: 32 µg/mL (≈ 68.6 µM); MIC 50% [6]: 16 µg/mL (≈ 34.3 µM); MIC 99% [6]: 32 µg/mL (≈ 68.6 µM); MIC 50% [7]: 16 µg/mL (≈ 34.3 µM); MIC 99% [7]: 32 µg/mL (≈ 68.6 µM); MIC 50% [8]: 16 µg/mL (≈ 34.3 µM); MIC 99% [8]: 32 µg/mL (≈ 68.6 µM); MIC 50% [9, 10]: 16 µg/mL (≈ 34.3 µM); MIC 99% [9, 10]: 32 µg/mL (≈ 68.6 µM)
CN1CCCN(C2CCN(Cc3cc(Cl)ccc3OCc3ccccc3)CCC2O)CC1 (centres unmarked) [24/H6] | – | – | – | – | – | – | – | – | – | – | – | – | top 6 | –
CN(C)C1CC2(CCN(Cc3cc(Cl)ccc3OCc3ccccc3)CC2)OCC1(C)O (centres unmarked) [24/H9] | – | – | – | – | – | – | – | – | – | – | – | – | top 6 | –
CN(C)Cc1cccc(C2CCCN2Cc2ccccc2OCc2cccc(F)c2)n1 (centres unmarked) [25/B3] | – | – | – | – | – | – | – | – | – | – | – | – | top 6 | –
Clc1ccc(COC(Cn2ccnc2)c2ccc(Cl)cc2Cl)c(Cl)c1 (centres unmarked) [MICONAZOLE, reference compound] | – | – | – | – | – | – | – | – | – | – | – | – | – | MIC50 ([4]; Candida albicans, ATCC13883): 0.5 µg/mL (≈ 1.2 µM); MIC99 ([4]; Candida albicans, ATCC13883): 1 µg/mL (≈ 2.4 µM)

Further lines, with some results ahead:

MIC 50% ([9]; MSSA ATCC 25923 (Table 4)) [µg/mL] | MIC 99% ([9]; MSSA ATCC 25923 (Table 4)) [µg/mL] | MIC50 [5] [µg/mL] | MIC99 [5] [µg/mL] | MIC50 [6] [µg/mL] | MIC99 [6] [µg/mL] | MIC50 [7] [µg/mL] | MIC99 [7] [µg/mL] | MIC50 [8] [µg/mL] | MIC99 [8] [µg/mL] | MIC50 [9, 10] [µg/mL] | MIC99 [9, 10] [µg/mL] | SMILES | rank order potency to reduce maximal respiration and ATP production [1] | other results
32 (≈ 68.7 µM) | 64 (≈ 137 µM) | – | – | – | – | – | – | – | – | – | – | CN1CCN(C2CCN(Cc3cc(C(C)(C)C)ccc3OCc3ccccc3)CCC2O)CC1 (centres unmarked) [24/F9] | top 6 | MIC 50% ([2]; MRSA ATCC 43300): 64 µg/mL (≈ 137 µM); MIC 99% ([2]; MRSA ATCC 43300): >64 µg/mL; reduction of mammosphere formation [3]: ~90%; MIC 99% [4]: >64 µg/mL; effect on glycolysis [1]: suppressed glycolysis; inhibition of mitochondrial oxygen-consumption [1]: dose-dependently inhibited; MIC 50% [5]: >32 µg/mL; MIC 99% [5]: >64 µg/mL; MIC 50% [6]: 32 µg/mL (≈ 68.7 µM); MIC 99% [6]: 64 µg/mL (≈ 137 µM); MIC 50% [7]: 32 µg/mL (≈ 68.7 µM); MIC 99% [7]: 64 µg/mL (≈ 137 µM); MIC 50% [8]: 32 µg/mL (≈ 68.7 µM); MIC 99% [8]: 64 µg/mL (≈ 137 µM); MIC 50% [9, 10]: 32 µg/mL (≈ 68.7 µM); MIC 99% [9, 10]: 64 µg/mL (≈ 137 µM)
4 (≈ 10.9 µM) | 8 (≈ 21.9 µM) | 128 (≈ 350 µM) | 256 (≈ 701 µM) | 4 (≈ 10.9 µM) | 8 (≈ 21.9 µM) | 16 (≈ 43.8 µM) | > 32 | 32 (≈ 87.6 µM) | > 64 | 4 (≈ 10.9 µM) | 8 (≈ 21.9 µM) | CC1(C)S[C@@H]2[C@H](NC(=O)[C@H](N)c3ccc(O)cc3)C(=O)N2[C@H]1C(=O)O [AMOXICILLIN, reference compound] | – | sensitivity of MRSA [2]: resistant; MIC50 [2, 11]: > 64 µg/mL; MIC99 [2, 11]: > 64 µg/mL
– | – | 1 (≈ 2.25 µM) | 2 (≈ 4.5 µM) | 0.5 (≈ 1.13 µM) | 1 (≈ 2.25 µM) | 0.5 (≈ 1.13 µM) | 2 (≈ 4.5 µM) | 2 (≈ 4.5 µM) | 4 (≈ 9 µM) | 0.5 (≈ 1.13 µM) | 1 (≈ 2.25 µM) | C[C@H]1c2cccc(O)c2C(=O)C2=C(O)[C@]3(O)C(=O)C(C(N)=O)=C(O)[C@@H](N(C)C)[C@@H]3[C@@H](O)[C@@H]21 [DOXYCYCLINE, reference compound] | – | MIC99 ([4]; Candida albicans, ATCC13883): > 64 µg/mL
– | – | 64 (≈ 190 µM) | 256 (≈ 759 µM) | 1 (≈ 2.96 µM) | 2 (≈ 5.93 µM) | 128 (≈ 379 µM) | > 128 | 128 (≈ 379 µM) | 256 (≈ 759 µM) | 1 (≈ 2.96 µM) | 2 (≈ 5.93 µM) | CC(=O)NC[C@H]1CN(c2ccc(N3CCOCC3)c(F)c2)C(=O)O1 [LINEZOLID, reference compound] | – | –
